Source: patent US20250025445A1, “METHOD OF CARDIOPROTECTION” (Race Oncology LTD., priority 2021, published 2025)
Like-named read-outs stand apart in the source and are kept apart here.

Tests used:
[1] = test system: Primary Human Cardiac Myocytes (HCMs); experiment: Primary human cardiomyocyte cell viability (CellTiter-Glo); assay type: cell-based; conditions: up to 72 hours; for mitigation of toxicity of carfilzomib towards primary HCMs: FTO inhibitor 0-10 μM with 1 μM carfilzomib; for mitigation of toxicity of doxorubicin towards primary HCMs: FTO inhibitor 0-10 μM with 1 μM doxorubicin
Protocol: Primary Human Cardiac Myocytes (HCMs) were purchased from PromoCell® (Heidelberg, Germany) and cultured according to manufacturer's recommendations using PromoCell® Myocyte growth media (5% [v/v] foetal calf serum, 0.5 ng/ml recombinant human epidermal growth factor, 2 ng/ml recombinant human basic fibroblast growth factor, 5 μg/ml recombinant human insulin) supplemented with 1% [v/v] Penicillin-Streptomycin [Sigma-Aldrich]). Briefly, 1×10^6 HCMs were seeded and grown in Corning® T75 flasks (Sigma-Aldrich, New South Wales, Australia) in an incubator at 37° C. under 5% CO2 conditions. At 80-90% confluency, HCMs were gently detached using the DetachKit (PromoCell®), collected into Corning® 50 mL centrifuge tubes (Sigma-Aldrich), and centrifuged at 300×g for 10 mins at room temperature. The resulting supernatant were discarded and HCM pellet was resuspended with 5-10 mL of pre-warmed Myocyte Growth Medium. Total viable cells were enumerated with Invitrogen™ Countess Cell Counter (Thermo Fisher Scientific, New South Wales, Australia) and 1×10^5 live HCMs were seeded in triplicate into Corning® 96-well white polystyrene microplate (Sigma).
(§1) Dox, Dauno and Epi, were dissolved in sterile water to make a stock concentration of 20 mM, respectively, while Tz was dissolved in sterile PBS to a stock concentration of 100 μM. […] The concentrations were as follows 0 nM, 15.62 nM, 62.5 nM, 250 nM, 500 nM, 1 μM, 5 μM, and 10 μM. […] Vehicle controls were incubated with media supplemented with either sterile water or DMSO. […] This was repeated at 48 hours and 72 hours. […] Both FB23/2 and brequinar (MedChemExpress) were dissolved in dimethyl sulfoxide (DMSO; Sigma-Aldrich) to make a stock concentration of 40 mM and 20 mM respectively.

[2] = test system: H929 multiple myeloma cells; experiment: H929 multiple myeloma cell viability (CellTiter-Glo); assay type: cell-based, human; conditions: FTO inhibitor up to 10 μM with 1 μM doxorubicin; up to 72 hours
Protocol: Human multiple myeloma NCI-H929 cells were cultured using RPMI-1640 growth media (Sigma-Aldrich), supplemented with 2 mM L-glutamine (Thermo Fisher Scientific), 10% (v/v) foetal calf serum (Sigma-Aldrich) and 0.05 mM 2-mercaptoethanol (Sigma-Aldrich). Briefly, 0.5×10^6 H929 were seeded and grown in Corning® T75 flasks (Sigma-Aldrich) in an incubator at 37° C. under 5% CO2 conditions. At 80-90% confluency, the cell suspension was then collected into Corning® 50 mL centrifuge tubes (Sigma-Aldrich) and centrifuged at 300×g for 10 mins at room temperature. The resulting supernatant were discarded and H929 pellet was resuspended with 5-10 mL of pre-warmed H929 growth media. Total viable cells were enumerated with Invitrogen™ Countess Cell Counter (Thermo Fisher Scientific, New South Wales, Australia) and 1×10^4 live H929 were seeded in triplicate into Corning® 96-well white polystyrene microplate (Sigma). […] The concentrations were as follows 0 nM, 15.62 nM, 62.5 nM, 250 nM, 500 nM, 1 μM, 5 μM, and 10 μM. […] Vehicle controls were incubated with media supplemented with either sterile water or DMSO. […] This was repeated at 48 hours and 72 hours. […] Both FB23/2 and brequinar (MedChemExpress) were dissolved in dimethyl sulfoxide (DMSO; […]

MCF7 breast cancer cells = experiment: MCF7 breast cancer cell viability (CellTiter-Glo); assay type: cell-based, human; conditions: FTO inhibitor up to 10 μM with 1 μM doxorubicin; up to 72 hours; FIG. 13
Protocol: Human breast adenocarcinoma (MCF7) cells were purchased from In Vitro Technologies (Victoria, Australia) and cultured according to manufacturer's recommendations using MCF7 growth media, Low glucose Dulbecco's Modified Eagle's medium (DMEM; Sigma-Aldrich, Australia) supplemented with 10% (v/v) foetal calf serum (Sigma-Aldrich) and 1% (v/v) Penicillin-Streptomycin (Sigma-Aldrich). Briefly, 1×10^6 MCF7 were seeded and grown in Corning® T75 flasks (Sigma-Aldrich) in an incubator at 37° C. under 5% CO2 conditions. At 80-90% confluency, MCF7 were washed with Dulbecco's Phosphate Buffered Saline (Sigma-Aldrich) for 30s at room temperature and followed by incubation with Trypsin-EDTA (Sigma-Aldrich) for 5 mins at 37° C. under 5% CO2 conditions. Trypsin solution was then neutralised with 1:1 volume of MCF7 growth media. The cell suspensions were then collected into Corning® 50 mL centrifuge tubes (Sigma-Aldrich) and centrifuged at 300×g for 10 mins at room temperature. The resulting supernatants were discarded and MCF7 pellets were resuspended with 5-10 mL of pre-warmed MCF7 growth media. Total viable cells were enumerated with Invitrogen™ Countess Cell Counter (Thermo Fisher Scientific, New South Wales, Australia) and 9×10^4 live MCF7 were seeded in triplicate into Corning® 96-well white polystyrene microplate (Sigma).
as §1

[3] = cited from earlier work
[4] = cited from earlier work; remark: listed apart in the source
[5] = doxorubicin 5 mg/kg alone
Excerpt: (§2) In particular, well established cardiotoxicity markers, including left ventricular fractional shortening, heart E/A ratio, left ventricular diastolic function, left ventricular dilatation, cardiac output, plasma triglyceride levels, plasma creatine kinase-MB (CK-MB), plasma LDH (lactate dehydrogenase) and plasma brain natriuretic peptide (BNP) were monitored over a period of up to 42 days following the start of treatments delivered weekly, four times (and therefore final treatment on day 21).
(§3) Treatments were delivered to mice intravenously on days 0, 7, 14 and 21. Mice underwent echocardiography measurements at days 0, 21 and 42 to determine LVEF, FS, EDV, ESV, CO, E wave, A wave, E′, E/A, and E/E′, and blood samples were taken at days 0, 21 and 42 to assay for cardiac troponin I levels, BNP levels, CK, LDH levels and triglycerides.

[6] = Doxorubicin cardiotoxicity in mice: blood tests; conditions: doxorubicin 5 mg/kg alone
Excerpt: as §2, §3

[7] = i.v. weekly x4, day 21, worsening by day 42
[8] = 42 days after start of treatment

Cc1noc(C)c1-c1cc(Cl)c(Nc2ccccc2C(=O)NO)c(Cl)c1 [FB23/2]
mitigation of toxicity of carfilzomib towards primary HCMs [1]: did not mitigate the toxicity
mitigation of toxicity of doxorubicin towards primary HCMs [1]: did not mitigate the toxicity
increased loss of viability of H929 cells cultured with doxorubicin [2]: neither brequinar nor FB23/2, at concentrations of up to 10 μM, resulted in any increased loss of viability
increased loss of viability of MCF7 cells cultured with doxorubicin (MCF7 breast cancer cells): neither brequinar nor FB23/2, at concentrations of up to 10 μM, resulted in any increased loss of viability

Cc1c(-c2ccc(-c3ccccc3F)cc2)nc2ccc(F)cc2c1C(=O)O [brequinar]
mitigation of toxicity of carfilzomib towards primary HCMs [1]: did not mitigate the toxicity
mitigation of toxicity of doxorubicin towards primary HCMs [1]: did not mitigate the toxicity
increased loss of viability of H929 cells cultured with doxorubicin [2]: neither brequinar nor FB23/2, at concentrations of up to 10 μM, resulted in any increased loss of viability
increased loss of viability of MCF7 cells cultured with doxorubicin (MCF7 breast cancer cells): neither brequinar nor FB23/2, at concentrations of up to 10 μM, resulted in any increased loss of viability

CC(C)C[C@H](NC(=O)[C@H](CCc1ccccc1)NC(=O)CN1CCOCC1)C(=O)N[C@@H](Cc1ccccc1)C(=O)N[C@@H](CC(C)C)C(=O)[C@@]1(C)CO1 [carfilzomib]
patients with cardiotoxicity [3]: up to 10%

COc1cccc2c1C(=O)c1c(O)c3c(c(O)c1C2=O)C[C@@](O)(C(=O)CO)C[C@@H]3O[C@H]1C[C@H](N)[C@H](O)[C@H](C)O1 [doxorubicin]
congestive heart failure incidence ([4]; lifetime cumulative doxorubicin exposure limited to 400-450 mg/m^2): less than 58
incidence of congestive heart failure ([4]; patients received doxorubicin at 400 mg/m^2): 4.78
incidence of congestive heart failure ([4]; patients received doxorubicin at 550 mg/m^2): 26%
incidence of congestive heart failure ([4]; patients received doxorubicin at 700 mg/m^2): 48%
heart E/A ratio [5, 7]: significant cardiotoxic effects
left ventricular fractional shortening [5, 7]: significant cardiotoxic effects
cardiac output [5, 8]: significant cardiotoxic effects
left ventricular diastolic function [5, 8]: significant cardiotoxic effects
left ventricular dilatation [5, 8]: significant cardiotoxic effects
cardiac output ([5]; day 21): not significantly so
left ventricular diastolic function ([5]; day 21): not significantly so
left ventricular dilatation ([5]; day 21): not significantly so
plasma CK-MB ([6]; day 21): significant increase
plasma triglyceride levels ([6]; day 21 and day 42): significantly elevated
